This note sets out measurements from publication PMC5768343, “A natural inhibitor of kidney-type glutaminase: a withanolide from Physalis pubescens with potent anti-tumor activity” (Oncotarget, 2017).

In one assay the test system is SW1990 cells. Description: EdU and DAPI double staining proliferation assay, SW1990. To be noted: 5 μM. Format: cell-based, human.
Assay [1] concerns erlotinib-resistant human non-small cell lung cancer cells (HCC827-ER). Nature of the assay: CCK8 cytotoxicity / proliferation assay, HCC827-ER. Format: cell-based. As to the method: The experiment was performed in triplicate.
Another assay deals with T1, KGA (recombinant cKGA) (Homo sapiens, UniProt O94925).
T1 construct: human KGA (cKGA) encoding amino acids 221–553 was cloned into pET26b vector; His tag (C); made in house; host or cells: E. coli BL21 (DE3)-RIL-Codon plus
T1 sequence (O94925 221-553): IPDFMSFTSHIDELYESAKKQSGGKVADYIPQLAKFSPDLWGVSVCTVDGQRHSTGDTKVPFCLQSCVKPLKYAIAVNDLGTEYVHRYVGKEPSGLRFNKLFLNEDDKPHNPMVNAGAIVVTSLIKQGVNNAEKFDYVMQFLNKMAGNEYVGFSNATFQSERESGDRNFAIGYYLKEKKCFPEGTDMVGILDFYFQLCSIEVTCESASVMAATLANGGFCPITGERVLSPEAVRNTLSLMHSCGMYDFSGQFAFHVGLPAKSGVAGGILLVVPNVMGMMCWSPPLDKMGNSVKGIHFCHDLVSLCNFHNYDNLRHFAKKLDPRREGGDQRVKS
Nature of the assay: Microscale thermophoresis (MST) binding assay. To be noted: labeled KGA 200 nM, 26°C. From the text: Specific details were referenced to our previous work.
A general note: In MST a laser heats a spot of the sample, and binding alters the fluorescence response.

Protocol for SW1990 cells: The logarithmic growth phase cells were seeded in 24-well plates at 2 × 10^4 ∼ 5 × 10^5 cells per well. After 4–6 h, the medium was removed, the medium containing no or different concentrations of compound was replaced, and 50 μM of EdU was added. 2 h later, the medium was removed, cells washed by PBS. 200 μL of cell fixative (i.e., PBS containing 4% paraformaldehyde) was added and incubated at room temperature for 30 minutes. The solution was discarded and 200 μL of 2 mg/mL glycine was added to each well. After 5 minutes of incubation, the glycine solution was discarded. Each well washed with 200 μL of PBS, rinse for 5 minutes, and PBS was removed. Apollo staining was added to each well with 200 μL of 1 X Apollo® staining solution. After incubation for 30 minutes at room temperature and decolorization, the reaction solution was discarded. Similarly, 200 μL of 1 × Hoechst 33342 solution was added to each well to dye the total DNA. After 30 minutes of incubation at room temperature and the reaction solution was discarded, and then the images were captured and analyzed by fluorescence microscopy.

Turning to `CO[C@H]1O[C@@H]([C@@H](C)[C@H]2C[C@H](OC(C)=O)[C@H]3[C@@H]4C[C@H]5O[C@]56[C@@H](O)C=CC(=O)[C@]6(C)[C@H]4CC[C@@]32C)C[C@]2(C)O[C@]12C` [physapubescin K], in the assay on SW1990 cells, the proliferated cell ratio entry was “close to zero”. For the same compound, the “sensitivity of cell growth to treatment” value in assay [1] (HCC827-ER, 1 μM) was “sensitive”. For the same compound, in assay [1] (Homo sapiens, HCC827ER, CCK8, 48 h), the IC50 – broadly, the concentration that gives 50% inhibition – was 720 ± 220 nM. Besides, at KGA (recombinant cKGA), the Kd (as a rule, the constant that tells how readily two partners part at equilibrium) came out at 3030 ± 380 nM.
